Assay results as given in article PMC7497630, “Coibamide A Targets Sec61 to Prevent Biogenesis of Secretory and Membrane Proteins” (ACS Chemical Biology, 2020).

Key:
K-562 = conditions: published NCI60 panel data, ref 1 (Coibamide A), 2 (Apratoxin A), 3 (Ipomoeassin F); cited from earlier work
OVCAR8 = conditions: published NCI60 panel data, ref 1 (Coibamide A), 2 (Apratoxin A), 3 (Ipomoeassin F); cited from earlier work
HS 578T = conditions: published NCI60 panel data, ref 1 (Coibamide A), 2 (Apratoxin A), 3 (Ipomoeassin F); cited from earlier work
OVCAR4 = conditions: published NCI60 panel data, ref 1 (Coibamide A), 2 (Apratoxin A), 3 (Ipomoeassin F); cited from earlier work
CCRF-CEM = conditions: published NCI60 panel data, ref 1 (Coibamide A), 2 (Apratoxin A), 3 (Ipomoeassin F); cited from earlier work
HCT-15 = conditions: published NCI60 panel data, ref 1 (Coibamide A), 2 (Apratoxin A), 3 (Ipomoeassin F); cited from earlier work
LOX IMVI = conditions: published NCI60 panel data, ref 1 (Coibamide A), 2 (Apratoxin A), 3 (Ipomoeassin F); cited from earlier work
SR = conditions: published NCI60 panel data, ref 1 (Coibamide A), 2 (Apratoxin A), 3 (Ipomoeassin F); cited from earlier work
SF-539 = conditions: published NCI60 panel data, ref 1 (Coibamide A), 2 (Apratoxin A), 3 (Ipomoeassin F); cited from earlier work
SK-MEL-28 = conditions: published NCI60 panel data, ref 1 (Coibamide A), 2 (Apratoxin A), 3 (Ipomoeassin F); cited from earlier work
EKVX = conditions: published NCI60 panel data, ref 1 (Coibamide A), 2 (Apratoxin A), 3 (Ipomoeassin F); cited from earlier work
SNB-19 = conditions: published NCI60 panel data, ref 1 (Coibamide A), 2 (Apratoxin A), 3 (Ipomoeassin F); cited from earlier work
NCI-H460 = conditions: published NCI60 panel data, ref 1 (Coibamide A), 2 (Apratoxin A), 3 (Ipomoeassin F); cited from earlier work
HT29 = conditions: published NCI60 panel data, ref 1 (Coibamide A), 2 (Apratoxin A), 3 (Ipomoeassin F); cited from earlier work
SF-295 = conditions: published NCI60 panel data, ref 1 (Coibamide A), 2 (Apratoxin A), 3 (Ipomoeassin F); cited from earlier work
HCC-2998 = conditions: published NCI60 panel data, ref 1 (Coibamide A), 2 (Apratoxin A), 3 (Ipomoeassin F); cited from earlier work
HCT-116 = conditions: published NCI60 panel data, ref 1 (Coibamide A), 2 (Apratoxin A), 3 (Ipomoeassin F); cited from earlier work
SW-620 = conditions: published NCI60 panel data, ref 1 (Coibamide A), 2 (Apratoxin A), 3 (Ipomoeassin F); cited from earlier work
UO-31 = conditions: published NCI60 panel data, ref 1 (Coibamide A), 2 (Apratoxin A), 3 (Ipomoeassin F); cited from earlier work
HOP-92 = conditions: published NCI60 panel data, ref 1 (Coibamide A), 2 (Apratoxin A), 3 (Ipomoeassin F); cited from earlier work
DU-145 = conditions: published NCI60 panel data, ref 1 (Coibamide A), 2 (Apratoxin A), 3 (Ipomoeassin F); cited from earlier work
SN12C = conditions: published NCI60 panel data, ref 1 (Coibamide A), 2 (Apratoxin A), 3 (Ipomoeassin F); cited from earlier work
A549/ATCC = conditions: published NCI60 panel data, ref 1 (Coibamide A), 2 (Apratoxin A), 3 (Ipomoeassin F); cited from earlier work
MDA-MB-231/ATCC = conditions: published NCI60 panel data, ref 1 (Coibamide A), 2 (Apratoxin A), 3 (Ipomoeassin F); cited from earlier work
PC-3 = conditions: published NCI60 panel data, ref 1 (Coibamide A), 2 (Apratoxin A), 3 (Ipomoeassin F); cited from earlier work
NCI-H522 = conditions: published NCI60 panel data, ref 1 (Coibamide A), 2 (Apratoxin A), 3 (Ipomoeassin F); cited from earlier work
MALME-3M = conditions: published NCI60 panel data, ref 1 (Coibamide A), 2 (Apratoxin A), 3 (Ipomoeassin F); cited from earlier work
TK-10 = conditions: published NCI60 panel data, ref 1 (Coibamide A), 2 (Apratoxin A), 3 (Ipomoeassin F); cited from earlier work
M14 = conditions: published NCI60 panel data, ref 1 (Coibamide A), 2 (Apratoxin A), 3 (Ipomoeassin F); cited from earlier work
COLO 205 = conditions: published NCI60 panel data, ref 1 (Coibamide A), 2 (Apratoxin A), 3 (Ipomoeassin F); cited from earlier work
NCI-H322M = conditions: published NCI60 panel data, ref 1 (Coibamide A), 2 (Apratoxin A), 3 (Ipomoeassin F); cited from earlier work
RXF 393 = conditions: published NCI60 panel data, ref 1 (Coibamide A), 2 (Apratoxin A), 3 (Ipomoeassin F); cited from earlier work
HL-60 (TB) = conditions: published NCI60 panel data; cited from earlier work
SNB-75 = conditions: published NCI60 panel data, ref 1 (Coibamide A), 2 (Apratoxin A), 3 (Ipomoeassin F); cited from earlier work
A498 = conditions: published NCI60 panel data, ref 1 (Coibamide A), 2 (Apratoxin A), 3 (Ipomoeassin F); cited from earlier work
MDA-MB-435 = conditions: published NCI60 panel data, ref 1 (Coibamide A), 2 (Apratoxin A), 3 (Ipomoeassin F); cited from earlier work
T-47D = conditions: published NCI60 panel data, ref 1 (Coibamide A), 2 (Apratoxin A), 3 (Ipomoeassin F); cited from earlier work
SK-MEL-5 = conditions: published NCI60 panel data, ref 1 (Coibamide A), 2 (Apratoxin A), 3 (Ipomoeassin F); cited from earlier work
786-0 = conditions: published NCI60 panel data, ref 1 (Coibamide A), 2 (Apratoxin A), 3 (Ipomoeassin F); cited from earlier work
NCI-H23 = conditions: published NCI60 panel data, ref 1 (Coibamide A), 2 (Apratoxin A), 3 (Ipomoeassin F); cited from earlier work
HOP-62 = conditions: published NCI60 panel data, ref 1 (Coibamide A), 2 (Apratoxin A), 3 (Ipomoeassin F); cited from earlier work
U251 = conditions: published NCI60 panel data, ref 1 (Coibamide A), 2 (Apratoxin A), 3 (Ipomoeassin F); cited from earlier work
SF-268 = conditions: published NCI60 panel data, ref 1 (Coibamide A), 2 (Apratoxin A), 3 (Ipomoeassin F); cited from earlier work
SK-MEL-2 = conditions: published NCI60 panel data, ref 1 (Coibamide A), 2 (Apratoxin A), 3 (Ipomoeassin F); cited from earlier work
OVCAR5 = conditions: published NCI60 panel data, ref 1 (Coibamide A), 2 (Apratoxin A), 3 (Ipomoeassin F); cited from earlier work
IGROV1 = conditions: published NCI60 panel data, ref 1 (Coibamide A), 2 (Apratoxin A), 3 (Ipomoeassin F); cited from earlier work
MOLT-4 = conditions: published NCI60 panel data, ref 1 (Coibamide A), 2 (Apratoxin A), 3 (Ipomoeassin F); cited from earlier work
UACC-62 = conditions: published NCI60 panel data, ref 1 (Coibamide A), 2 (Apratoxin A), 3 (Ipomoeassin F); cited from earlier work
RPMI-8226 = conditions: published NCI60 panel data, ref 1 (Coibamide A), 2 (Apratoxin A), 3 (Ipomoeassin F); cited from earlier work
KM12 = conditions: published NCI60 panel data, ref 1 (Coibamide A), 2 (Apratoxin A), 3 (Ipomoeassin F); cited from earlier work
SK-OV-3 = conditions: published NCI60 panel data, ref 1 (Coibamide A), 2 (Apratoxin A), 3 (Ipomoeassin F); cited from earlier work
UACC-257 = conditions: published NCI60 panel data, ref 1 (Coibamide A), 2 (Apratoxin A), 3 (Ipomoeassin F); cited from earlier work
MCF7 = conditions: published NCI60 panel data, ref 1 (Coibamide A), 2 (Apratoxin A), 3 (Ipomoeassin F); cited from earlier work
OVCAR3 = conditions: published NCI60 panel data, ref 1 (Coibamide A), 2 (Apratoxin A), 3 (Ipomoeassin F); cited from earlier work
NCI/ADR-RES = conditions: published NCI60 panel data, ref 1 (Coibamide A), 2 (Apratoxin A), 3 (Ipomoeassin F); cited from earlier work
NCI-H226 = conditions: published NCI60 panel data, ref 1 (Coibamide A), 2 (Apratoxin A), 3 (Ipomoeassin F); cited from earlier work
BT-549 = conditions: published NCI60 panel data, ref 1 (Coibamide A), 2 (Apratoxin A), 3 (Ipomoeassin F); cited from earlier work
[1] = biological target: Sec61α in U87-MG glioblastoma cells (Homo sapiens, UniProt P61619); assay: Cellular thermal shift assay; type: cell-based; conditions: intact U87-MG cells
Sec61α in U87-MG glioblastoma cells, sequence (P61619 whole entry): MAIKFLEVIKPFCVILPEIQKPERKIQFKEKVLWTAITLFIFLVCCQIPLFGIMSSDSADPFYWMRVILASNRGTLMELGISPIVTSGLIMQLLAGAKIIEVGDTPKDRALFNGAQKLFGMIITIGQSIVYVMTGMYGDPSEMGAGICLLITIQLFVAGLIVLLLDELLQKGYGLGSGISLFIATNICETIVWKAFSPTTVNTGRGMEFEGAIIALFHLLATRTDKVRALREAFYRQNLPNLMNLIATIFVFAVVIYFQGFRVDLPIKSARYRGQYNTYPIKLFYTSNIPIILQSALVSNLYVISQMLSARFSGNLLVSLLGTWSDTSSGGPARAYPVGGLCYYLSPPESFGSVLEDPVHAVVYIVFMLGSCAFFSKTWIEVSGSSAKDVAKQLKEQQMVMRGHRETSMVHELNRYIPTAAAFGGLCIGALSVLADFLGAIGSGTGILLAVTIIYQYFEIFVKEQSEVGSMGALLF
Sec61α in U87-MG glioblastoma cells, sequence (P60468 2-96 partner limits assumed): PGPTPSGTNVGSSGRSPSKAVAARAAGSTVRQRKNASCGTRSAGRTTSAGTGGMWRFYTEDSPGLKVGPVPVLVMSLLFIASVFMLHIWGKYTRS
Sec61α in U87-MG glioblastoma cells, sequence (P60059 whole entry partner): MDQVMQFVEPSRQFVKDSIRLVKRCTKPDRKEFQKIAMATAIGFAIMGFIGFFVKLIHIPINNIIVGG

For `C/C=C(\C)C(=O)O[C@@H]1[C@@H](O)[C@@H]2O[C@H]3[C@H](O[C@@H](CCCCC)CCCCCCC(=O)CCC(=O)OC[C@@H](O2)[C@H]1OC(=O)/C=C/c1ccccc1)O[C@H](C)[C@H](OC(C)=O)[C@@H]3O` [IpoF, ipomoeassin F], the GI50 (K-562) is listed as 10 nM, the GI50 (OVCAR8) is listed as 117 nM and the GI50 (HS 578T) is listed as 10 nM. The GI50 (OVCAR4) was 1580 nM, the GI50 (CCRF-CEM) was 741 nM and the GI50 (HCT-15) was 29.8 nM. For the same molecule, the GI50 (LOX IMVI) was 10 nM, the GI50 (SR) was 14.4 nM and the GI50 (SF-539) was 10 nM. The GI50 (SK-MEL-28) was 17.5 nM, the GI50 (EKVX) was 10 nM and the GI50 (SNB-19) was 129 nM. For the same molecule, the GI50 (NCI-H460) was 10 nM, the GI50 (HT29) was 10 nM and the GI50 (SF-295) was 10 nM. The GI50 (HCC-2998) was 1180 nM, the GI50 (HCT-116) was 10 nM and the GI50 (SW-620) was 10 nM. For the same molecule, the GI50 (UO-31) was 10 nM, the GI50 (HOP-92) was 10 nM and the GI50 (DU-145) was 31.9 nM. The GI50 (SN12C) was 10 nM, the GI50 (A549/ATCC) was 10 nM and the GI50 (MDA-MB-231/ATCC) was 10 nM. The GI50 (PC-3) was 10 nM, the GI50 (NCI-H522) was 27.9 nM and the GI50 (MALME-3M) was 57.8 nM. For the same molecule, the GI50 (TK-10) was 15.2 nM, the GI50 (M14) was 10 nM and the GI50 (COLO 205) was 10 nM. For the same molecule, the GI50 (NCI-H322M) was 391 nM, the GI50 (RXF 393) was 10 nM and the GI50 (HL-60 (TB)) was 49 nM. The GI50 (SNB-75) was 10 nM, the GI50 (A498) was 315 nM and the GI50 (MDA-MB-435) was 10 nM. For the same molecule, the GI50 (T-47D) was 10 nM, the GI50 (SK-MEL-5) was 10 nM and the GI50 (786-0) was 30.1 nM. For the same molecule, the GI50 (NCI-H23) was 213 nM, the GI50 (HOP-62) was 10 nM and the GI50 (U251) was 10 nM. For the same molecule, the GI50 (SF-268) was 115 nM, the GI50 (SK-MEL-2) was 445 nM and the GI50 (OVCAR5) was 1230 nM. For the same molecule, the GI50 (IGROV1) was 26.7 nM, the GI50 (MOLT-4) was 3420 nM and the GI50 (UACC-62) was 15.3 nM. For the same molecule, the GI50 (RPMI-8226) was 10 nM, the GI50 (KM12) was 10 nM and the GI50 (SK-OV-3) was 38.4 nM. The GI50 (UACC-257) was 11.9 nM, the GI50 (MCF7) was 10 nM and the GI50 (OVCAR3) was 28.3 nM. For the same molecule, the GI50 (NCI/ADR-RES) was 297 nM, the GI50 (NCI-H226) was 276 nM and the GI50 (BT-549) was 17.9 nM.

For `NCC(=O)Nc1ccc(-n2nc(C(F)(F)F)cc2-c2ccc3c(ccc4ccccc43)c2)cc1` [OSU-03012], the “Sec61α detection at 60–66 °C (melting curve)” value ([1]; 45 to 72 °C for 3 min, 3 μM OSU-03012, 1 h) was “relatively weak immunoreactivity” and the “stabilization of Sec61α, isothermal dose–response” value ([1]; 51 °C for 3 min, OSU-03012 0.03 nM to 10 μM) was “no apparent stabilization”.
